From patent EP4707280A1, “1,4-CINEOLE DERIVATIVE AND INTERMEDIATE THEREOF, HERBICIDE CONTAINING SAID DERIVATIVE AS ACTIVE INGREDIENT, METHOD FOR USING HERBICIDE, AND METHOD FOR PREPARING AGROCHEMICAL COMPOSITION” (HOKKO CHEMICAL INDUSTRY CO., LTD., priority 2023, dated 2024)

How the values were obtained:
Type in all cases: in vivo
Digitaria ciliaris [1] = experiment: Test Example 4: herbicidal effect test by stem and leaf treatment in upland field; conditions: Digitaria ciliaris; 120 g per 10 ares; sprayed seven days after sowing, upland soil; 14 days after application; read-out: weed inhibition rate
Digitaria ciliaris [2] = experiment: Test Example 8: herbicidal effect test by stem and leaf treatment in upland field (low dose); conditions: Digitaria ciliaris; 7.5 g per 10 ares; sprayed seven days after sowing, upland soil; 14 days after application; read-out: weed inhibition rate
Echinochloa crus-galli [3] = experiment: as above; conditions: Echinochloa crus-galli; 7.5 g per 10 ares; sprayed seven days after sowing, upland soil; 14 days after application; read-out: weed inhibition rate
[4] = test system: Echinochloa crus-galli var. formosensis; experiment: Test Example 5: herbicidal effect test by soil application in paddy rice (low dose); conditions: Echinochloa crus-galli, soil, 336 h; 7.5 g per 10 ares; applied immediately after sowing, flooded pots; 14 days after application; read-out: weed inhibition rate
In short: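 Pre-emergence paddy test: seeds sown 0–1 cm (30 each), pots flooded ~3 cm, greenhouse. EC dilution dropped into water right after sowing, 7.5 g a.i./10 a. Duplicate pots; weed inhibition rate (%) by formula, day 14.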

[5] = test system: Echinochloa crus-galli var. formosensis; experiment: Test Example 6: herbicidal effect test by application during growth period of paddy rice (low dose); conditions: Echinochloa crus-galli; 7.5 g per 10 ares; applied seven days after sowing, flooded pots; 14 days after application; read-out: weed inhibition rate
In short: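 Emulsifiable concentrate, water-diluted, dropped onto flooded paddy pots 7 days post-sowing at 7.5 g active ingredient/10 a. Greenhouse-grown weeds; percent inhibition scored at day 14 after treatment.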

[6] = test system: Echinochloa crus-galli var. formosensis; experiment: Test Example 1: herbicidal effect test by soil application in paddy rice; conditions: Echinochloa crus-galli, soil, 336 h; 120 g active ingredient per 10 ares; applied immediately after sowing, flooded pots; 14 days after application; read-out: weed inhibition rate
In short: (§1)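 Pre-emergence paddy treatment: diluted emulsifiable concentrate applied by dropper at 120 g a.i./10 ares immediately after sowing. Seeds (30 per species, 0–1 cm deep) in fertilized, puddled paddy soil kept under ~3 cm flood in a glass greenhouse.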

Scirpus juncoides [7] = experiment: as above; conditions: Schoenoplectiella juncoides, soil, 336 h; 120 g active ingredient per 10 ares; applied immediately after sowing, flooded pots; 14 days after application; read-out: weed inhibition rate
In short: as §1

[8] = test system: Echinochloa crus-galli var. formosensis; experiment: Test Example 2: herbicidal effect test by application during growth period of paddy rice; conditions: Echinochloa crus-galli; 120 g per 10 ares; applied seven days after sowing, flooded pots; 14 days after application; read-out: weed inhibition rate
In short: (§2)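 Flooded paddy pot test, greenhouse. Seeds 30/species, 0–1 cm depth, water ~3 cm. EC diluted in water, dropper-applied 7 d post-sowing at 120 g a.i./10 a. Inhibition rate (%) read 14 d after treatment; n=2.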

Scirpus juncoides [9] = experiment: as above; conditions: Schoenoplectiella juncoides; 120 g per 10 ares; applied seven days after sowing, flooded pots; 14 days after application; read-out: weed inhibition rate
In short: as §2

Digitaria ciliaris [10] = experiment: Test Example 3: herbicidal effect test by soil application in upland field; conditions: Digitaria ciliaris, 120 g per 10 ares, sprayed one day after sowing, 14 days after application, read-out: weed inhibition rate
In short: (§3)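 Weed inhibition (%) was assessed 14 days after treatment, in duplicate per concentration group. Seeds had been mixed into the upper 1 cm of upland alluvial loam, and the soil surface was sprayed one day later with the diluted emulsifiable concentrate at 120 g active ingredient per 10 ares.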

Echinochloa crus-galli [11] = experiment: as above; conditions: Echinochloa crus-galli, 120 g per 10 ares, sprayed one day after sowing, 14 days after application, read-out: weed inhibition rate
In short: as §3

Echinochloa crus-galli [12] = experiment: Test Example 4: herbicidal effect test by stem and leaf treatment in upland field; conditions: Echinochloa crus-galli; 120 g per 10 ares; sprayed seven days after sowing, upland soil; 14 days after application; read-out: weed inhibition rate
Digitaria ciliaris [13] = experiment: Test Example 7: herbicidal effect test by soil application in upland field (low dose); conditions: Digitaria ciliaris, 7.5 g per 10 ares, sprayed one day after sowing, 14 days after application, read-out: weed inhibition rate
In short: (§4)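 Read-out: weed inhibition rate (%) at 14 d post-treatment, duplicate pots per concentration. Seeds sown in the top 1 cm of upland alluvial loam; emulsifiable concentrate diluted in water and sprayed on the soil surface 1 d after sowing at 7.5 g a.i./10 a (100 L/10 a spray volume).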

Echinochloa crus-galli [14] = experiment: as above; conditions: Echinochloa crus-galli, 7.5 g per 10 ares, sprayed one day after sowing, 14 days after application, read-out: weed inhibition rate
In short: as §4

CC(C)[C@]12C[C@@H](OCc3c(Cl)cccc3Cl)[C@](C)(C[C@@H]1Cl)O2 [1-652, (1R,2S,4S,5R)-2-chloro-5-[(2,6-dichlorophenyl)methoxy]-1-isopropyl-4-methyl-7-oxabicyclo[2.2.1]heptane]
≥ 80%: inhibition at 1200 g/ha (Digitaria ciliaris [1]) | inhibition at 75 g/ha (Digitaria ciliaris [2]) | inhibition at 75 g/ha (Echinochloa crus-galli [3]) | inhibition at 75 g/ha [4] | inhibition at 75 g/ha [5] | pest or weed control at 1200 g/ha [6] | pest or weed control at 1200 g/ha (Scirpus juncoides [7]) | inhibition at 1200 g/ha [8] | inhibition at 1200 g/ha (Scirpus juncoides [9]) | inhibition at 1200 g/ha (Digitaria ciliaris [10]) | inhibition at 1200 g/ha (Echinochloa crus-galli [11]) | inhibition at 1200 g/ha (Echinochloa crus-galli [12]) | inhibition at 75 g/ha (Digitaria ciliaris [13]) | inhibition at 75 g/ha (Echinochloa crus-galli [14])

CC(C)[C@]12C[C@@H](OCc3c(F)cccc3Cl)[C@](C)(C[C@@H]1Cl)O2 [1-653, (1R,2S,4S,5R)-2-chloro-5-[(2-chloro-6-fluoro-phenyl)methoxy]-1-isopropyl-4-methyl-7-oxabicyclo[2.2.1]heptane]
≥ 80%: inhibition at 1200 g/ha (Digitaria ciliaris [1]) | inhibition at 75 g/ha (Digitaria ciliaris [2]) | inhibition at 75 g/ha (Echinochloa crus-galli [3]) | inhibition at 75 g/ha [4] | inhibition at 75 g/ha [5] | pest or weed control at 1200 g/ha [6] | pest or weed control at 1200 g/ha (Scirpus juncoides [7]) | inhibition at 1200 g/ha [8] | inhibition at 1200 g/ha (Scirpus juncoides [9]) | inhibition at 1200 g/ha (Digitaria ciliaris [10]) | inhibition at 1200 g/ha (Echinochloa crus-galli [11]) | inhibition at 1200 g/ha (Echinochloa crus-galli [12]) | inhibition at 75 g/ha (Digitaria ciliaris [13]) | inhibition at 75 g/ha (Echinochloa crus-galli [14])

CC(C)[C@]12C[C@@H](OCc3ccccn3)[C@](C)(C[C@@H]1Cl)O2 [1-658, 2-[[(1S,2R,4R,5S)-5-chloro-4-isopropyl-1-methyl-7-oxabicyclo[2.2.1]heptan-2-yl]oxymethyl]pyridine]
≥ 80%: inhibition at 1200 g/ha (Digitaria ciliaris [1]) | inhibition at 75 g/ha (Digitaria ciliaris [2]) | inhibition at 75 g/ha (Echinochloa crus-galli [3]) | inhibition at 75 g/ha [4] | inhibition at 75 g/ha [5] | pest or weed control at 1200 g/ha [6] | pest or weed control at 1200 g/ha (Scirpus juncoides [7]) | inhibition at 1200 g/ha [8] | inhibition at 1200 g/ha (Scirpus juncoides [9]) | inhibition at 1200 g/ha (Digitaria ciliaris [10]) | inhibition at 1200 g/ha (Echinochloa crus-galli [11]) | inhibition at 1200 g/ha (Echinochloa crus-galli [12]) | inhibition at 75 g/ha (Digitaria ciliaris [13]) | inhibition at 75 g/ha (Echinochloa crus-galli [14])

CC(C)[C@]12C[C@@H](OCc3cccs3)[C@](C)(C[C@@H]1Cl)O2 [1-661, (1R,2S,4S,5R)-2-chloro-1-isopropyl-4-methyl-5-(2-thienylmethoxy)-7-oxabicyclo[2.2.1]heptane]
≥ 80%: inhibition at 1200 g/ha (Digitaria ciliaris [1]) | inhibition at 75 g/ha (Digitaria ciliaris [2]) | inhibition at 75 g/ha (Echinochloa crus-galli [3]) | inhibition at 75 g/ha [4] | inhibition at 75 g/ha [5] | pest or weed control at 1200 g/ha [6] | pest or weed control at 1200 g/ha (Scirpus juncoides [7]) | inhibition at 1200 g/ha [8] | inhibition at 1200 g/ha (Scirpus juncoides [9]) | inhibition at 1200 g/ha (Digitaria ciliaris [10]) | inhibition at 1200 g/ha (Echinochloa crus-galli [11]) | inhibition at 1200 g/ha (Echinochloa crus-galli [12]) | inhibition at 75 g/ha (Digitaria ciliaris [13]) | inhibition at 75 g/ha (Echinochloa crus-galli [14])

CC(C)[C@]12C[C@@H](OCc3ccsc3)[C@](C)(C[C@@H]1Cl)O2 [1-662, (1R,2S,4S,5R)-2-chloro-1-isopropyl-4-methyl-5-(3-thienylmethoxy)-7-oxabicyclo[2.2.1]heptane]
≥ 80%: inhibition at 1200 g/ha (Digitaria ciliaris [1]) | inhibition at 75 g/ha (Digitaria ciliaris [2]) | inhibition at 75 g/ha (Echinochloa crus-galli [3]) | inhibition at 75 g/ha [4] | inhibition at 75 g/ha [5] | pest or weed control at 1200 g/ha [6] | pest or weed control at 1200 g/ha (Scirpus juncoides [7]) | inhibition at 1200 g/ha [8] | inhibition at 1200 g/ha (Scirpus juncoides [9]) | inhibition at 1200 g/ha (Digitaria ciliaris [10]) | inhibition at 1200 g/ha (Echinochloa crus-galli [11]) | inhibition at 1200 g/ha (Echinochloa crus-galli [12]) | inhibition at 75 g/ha (Digitaria ciliaris [13]) | inhibition at 75 g/ha (Echinochloa crus-galli [14])
